The results in this text go back to US10953012B2, “Heterocyclic compounds for the inhibition of pask” (BioEnergenix LLC, priority 2011, dated 2021).

The target in one assay is CK2a2 (Homo sapiens (Human), UniProt P19784). In words: Biochemical Assay for CK2 Activity. The following applies: 33P-ATP radiochemical assay; read-out: IC50 CK2 a2. How it is done:
Biochemical Assay for CK2 Activity
Purified CK2a2 (NP_001887; human full-length protein, GST tagged) from insect cells (final concentration 1.2 nM) is added to freshly prepared Base Reaction Buffer containing 20 mM Hepes (pH 7.5), 10 mM MgCl2, 1 mM EGTA, 0.02% Brij35, 0.02 mg/ml BSA, 0.1 mM Na3VO4, 2 mM DTT, 1% DMSO and CK2 sub [RRRDDDSDDD] (20 μM final). Test compounds in DMSO are then added and the mixture, followed by delivery of ^33P-ATP (specific activity 0.01 μCi/μl final) to initiate the reaction. The kinase reaction is incubated for 120 min at room temperature. The entire reaction mixture is washed through onto a P81 Phosphocellulose paper and washed three times for 10 minutes in 75 mM phosphoric acid and once in methanol prior to drying and scintillation counting.

In assay [1] the target is PASK (Homo sapiens (Human), UniProt Q96RG2). The assay is described as follows: PAS Kinase FRET Assay. It counts as biochemical. As to conditions: TR-FRET assay; read-out: IC50 Kinase Domain. An outline of the steps: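 TR-FRET read-out (665/615 nm) of ULight-peptide phosphorylation by PASK, detected with Eu-labelled anti-phospho antibody. Compound, kinase and substrate/ATP reacted 2 h at 25 °C in the dark in 50 mM HEPES, 10 mM MgCl2, 1 mM EGTA, 0.01% Tween-20, 2 mM DTT. Eleven-point dilution series made at 4× final.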
(In general: TR-FRET usually uses a lanthanide donor and a delayed reading to cut background.)

The target in assay [2] is PASK (UniProt #Q96RG2; residues 879-1323) (Homo sapiens (Human), UniProt Q96RG2). In words: PASK ATP Radiochemical Assay. The following applies: 33P-ATP radiochemical assay; read-out: IC50 Kinase Domain. It counts as biochemical. The method, then:
PASK ATP Radiochemical Assay Purified PASK (UniProt #Q96RG2; human recombinant N-terminal GST tagged construct, residues 879-1323) from insect cells (final concentration 5 nM) is added to freshly prepared Base Reaction Buffer containing 20 mM HEPES (pH 7.5), 10 mM MgCl2, 1 mM EGTA, 0.02% Brij35, 0.02 mg/ml BSA, 0.1 mM Na3VO4, 2 mM DTT, 1% DMSO and Myelin Basic Protein (20 μM final). Test compounds in DMSO are then added and the mixture, followed by delivery of ^33P-ATP (specific activity 0.01 μCi/μl final) to initiate the reaction. The kinase reaction is incubated for 120 min at room temperature. The entire reaction mixture is washed through onto a P81 Phosphocellulose paper and washed three times for 10 minutes in 75 mM phosphoric acid and once in methanol prior to drying and scintillation counting.

Chain of CK2a2 (P19784 whole entry): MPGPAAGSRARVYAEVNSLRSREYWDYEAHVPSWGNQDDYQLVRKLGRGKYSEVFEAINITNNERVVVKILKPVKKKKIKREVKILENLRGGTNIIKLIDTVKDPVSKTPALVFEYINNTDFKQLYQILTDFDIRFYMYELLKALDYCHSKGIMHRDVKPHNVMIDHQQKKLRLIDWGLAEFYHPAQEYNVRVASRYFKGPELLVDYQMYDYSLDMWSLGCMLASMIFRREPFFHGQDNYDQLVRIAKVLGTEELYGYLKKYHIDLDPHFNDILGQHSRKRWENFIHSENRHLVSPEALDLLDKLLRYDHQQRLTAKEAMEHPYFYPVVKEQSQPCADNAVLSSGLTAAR
Chain of PASK (Homo sapiens (Human), UniProt Q96RG2) (Q96RG2 999-1251): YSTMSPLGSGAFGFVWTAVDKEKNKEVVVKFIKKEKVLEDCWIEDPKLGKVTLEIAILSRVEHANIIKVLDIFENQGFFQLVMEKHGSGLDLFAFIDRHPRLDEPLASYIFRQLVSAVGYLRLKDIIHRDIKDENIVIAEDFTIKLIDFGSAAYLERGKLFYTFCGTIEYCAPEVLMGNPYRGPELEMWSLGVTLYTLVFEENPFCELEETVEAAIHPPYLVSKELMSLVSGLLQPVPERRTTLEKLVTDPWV
Chain of PASK (UniProt #Q96RG2; residues 879-1323) (Homo sapiens (Human), UniProt Q96RG2) (Q96RG2 879-1323): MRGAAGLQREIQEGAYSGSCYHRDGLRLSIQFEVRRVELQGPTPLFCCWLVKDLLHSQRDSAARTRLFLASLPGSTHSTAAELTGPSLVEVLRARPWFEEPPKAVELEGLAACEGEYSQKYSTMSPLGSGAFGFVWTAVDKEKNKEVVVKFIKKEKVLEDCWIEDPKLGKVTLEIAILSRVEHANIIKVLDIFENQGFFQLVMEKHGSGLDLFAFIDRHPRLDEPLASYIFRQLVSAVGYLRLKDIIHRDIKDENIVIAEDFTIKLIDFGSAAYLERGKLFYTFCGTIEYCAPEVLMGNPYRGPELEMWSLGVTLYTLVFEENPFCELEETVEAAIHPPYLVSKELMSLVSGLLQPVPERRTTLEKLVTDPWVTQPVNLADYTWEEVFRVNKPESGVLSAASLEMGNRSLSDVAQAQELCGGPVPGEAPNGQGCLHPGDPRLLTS

The IC50 is the concentration needed to halve the response being measured. With `COc1ccc(-c2cc(=O)n3ncc(-c4ccc(F)cc4)c3[nH]2)cc1` [Example 53, 3-(4-Fluorophenyl)-5-(4-methoxyphenyl)pyrazolo[1,5-a]pyrimidin-7(4H)-one], the IC50 at CK2a2 is at most 10 µM.

With `Cc1nn2c(=O)cc(-c3ccc4c(c3)OCCO4)[nH]c2c1-c1ccccc1` [Example 54, 5-(2,3-Dihydrobenzo[b][1,4]dioxin-6-yl)-2-methyl-3-phenylpyrazolo[1,5-a]pyrimidin-7(4H)-one], the IC50 on CK2a2 was at most 10 µM.

`Cc1nn2c(=O)cc(-c3ccc4c(c3)CCO4)[nH]c2c1-c1ccccc1` [Example 55, 5-(2,3-Dihydrobenzofuran-5-yl)-2-methyl-3-phenylpyrazolo[1,5-a]pyrimidin-7(4H)-one]: at CK2a2, the half-inhibitory concentration (IC50) is at most 10 µM.

Regarding `COc1ccc(-c2cc(=O)n3ncc(-c4ccccn4)c3[nH]2)cc1` [Example 56, 5-(4-Methoxyphenyl)-3-(pyridin-2-yl)pyrazolo[1,5-a]pyrimidin-7(4H)-one], at CK2a2, the IC50 was at most 10 µM.

For the molecule `Cc1nn2c(=O)cc(-c3ccccc3)[nH]c2c1Cc1ccc(Cl)cc1` [Example 61], on CK2a2, the IC50 is at most 10 µM.

On to `Cc1nn2c(=O)cc(-c3ccc(OC(C)C)cc3)[nH]c2c1Cc1ccc(Cl)cc1` [Example 63, 3-(4-Chlorobenzyl)-5-(4-isopropoxyphenyl)-2-methylpyrazolo[1,5-a]pyrimidin-7(4H)-one], for which the IC50 at CK2a2 is at least 10 µM.

For the molecule `COc1cccc(-c2cc(=O)n3nc(C)c(Cc4ccc(Cl)cc4)c3[nH]2)c1` [Example 64, 3-(4-Chlorobenzyl)-5-(3-methoxyphenyl)-2-methylpyrazolo[1,5-a]pyrimidin-7(4H)-one], the IC50 at CK2a2 was at least 10 µM.

As to `COC(=O)c1ccc(-c2cc(=O)n3nc(C)c(Cc4ccc(Cl)cc4)c3[nH]2)cc1` [Example 65, Methyl 4-(3-(4-chlorobenzyl)-2-methyl-7-oxo-4,7-dihydropyrazolo[1,5-a]pyrimidin-5-yl)benzoate], the IC50 at CK2a2 was at least 10 µM.

For the molecule `Cc1nn2c(=O)cc(-c3ccc(C(N)=O)cc3)[nH]c2c1Cc1ccc(Cl)cc1` [Example 66, 4-(3-(4-Chlorobenzyl)-2-methyl-7-oxo-4,7-dihydropyrazolo[1,5-a]pyrimidin-5-yl)benzamide], at CK2a2, the IC50 was at least 10 µM.

Turning to `Cc1nn2c(=O)cc(-c3ccc(C(F)(F)F)cc3)[nH]c2c1Cc1ccc(Cl)cc1` [Example 67, 3-(4-Chlorobenzyl)-2-methyl-5-(4-(trifluoromethyl)phenyl)pyrazolo[1,5-a]pyrimidin-7(4H)-one], the IC50 on CK2a2 is at least 10 µM.

As for `COc1ccc(-c2cc(=O)n3nc(C)c(Cc4ccccc4)c3[nH]2)cc1OC` [Example 68, 3-Benzyl-5-(3,4-dimethoxyphenyl)-2-methylpyrazolo[1,5-a]pyrimidin-7(4H)-one], at CK2a2, the IC50 was at least 10 µM.

For `COc1ccc(-c2cc(=O)n3nc(C)c(Cc4ccc(Cl)cc4)c3[nH]2)cc1OC` [Example 69, 3-(4-Chlorobenzyl)-5-(3,4-dimethoxyphenyl)-2-methylpyrazolo[1,5-a]pyrimidin-7(4H)-one], on CK2a2, the IC50 was at least 10 µM.

On to `COc1ccc(-c2cc(=O)n3nc(C)c(Cc4ccccc4Cl)c3[nH]2)cc1` [Example 70, 3-(2-Chlorobenzyl)-5-(4-methoxyphenyl)-2-methylpyrazolo[1,5-a]pyrimidin-7-(4H)-one], for which the IC50 at PASK [1] is at most 10 µM; at CK2a2, at least 10 µM.

In the case of `Cc1nn2c(=O)cc(-c3cccnc3)[nH]c2c1-c1ccc(F)cc1` [Example 77, 3-(4-Fluorophenyl)-2-methyl-5-(pyridin-3-yl)pyrazolo[1,5-a]pyrimidin-7(4H)-one], the IC50 on PASK [2] and on CK2a2 was at most 10 µM each time.

Take `O=c1cc(-c2ccccn2)[nH]c2c(-c3ccc(F)cc3)cnn12` [Example 79, 3-(4-Fluorophenyl)-5-(pyridin-2-yl)pyrazolo[1,5-a]pyrimidin-7(4H)-one]: the IC50 on PASK [2] and at CK2a2 was at most 10 µM throughout.

Consider `O=c1cc(-c2ccc3c(c2)OCCO3)[nH]c2c(-c3ccc(N4CCCCC4)nc3)cnn12` [Example 89, 5-(2,3-Dihydrobenzo[b][1,4]dioxin-6-yl)-3-(6-(piperidin-1-yl)pyridin-3-yl)pyrazolo[1,5-a]pyrimidin-7(4H)-one], for which the IC50 on PASK [1] and at CK2a2 was at most 10 µM throughout.

`O=c1cc(-c2ccc3c(c2)OCCO3)[nH]c2c(-c3cccc(F)c3)cnn12` [Example 91, 5-(2,3-Dihydrobenzo[b][1,4]dioxin-6-yl)-3-(3-fluorophenyl)pyrazolo[1,5-a]pyrimidin-7(4H)-one]: the IC50 at PASK [1] and on CK2a2 was at most 10 µM throughout.

As for `O=c1cc(-c2cc3ccccc3o2)[nH]c2c(-c3ccccn3)cnn12` [Example 93, 5-(Benzofuran-2-yl)-3-(pyridin-2-yl)pyrazolo[1,5-a]pyrimidin-7(4H)-one], the IC50 on PASK [2] and on PASK [1] was at most 10 µM in each case.

For the molecule `O=c1cc(-c2ccc3cc[nH]c3c2)[nH]c2c(-c3ccccc3)cnn12` [Example 95, 5-(1H-Indol-6-yl)-3-phenylpyrazolo[1,5-a]pyrimidin-7(4H)-one], the IC50 at PASK [2] and on CK2a2 was at most 10 µM in each case.

On to `O=c1cc(-c2ccc3c(c2)OCCO3)[nH]c2c(-c3cccnc3)c(O)nn12` [Example 101, 5-(2,3-Dihydrobenzo[b][1,4]dioxin-6-yl)-2-hydroxy-3-(pyridin-3-yl)pyrazolo[1,5-a]pyrimidin-7(4H)-one], for which the IC50 at PASK [1] and at CK2a2 was at most 10 µM each time.

`O=c1cc(-c2cc3ccccc3o2)[nH]c2c(-c3ccccn3)cnn12` [Example 149, 5-(Benzofuran-2-yl)-3-(pyridin-2-yl)pyrazolo[1,5-a]pyrimidin-7(4H)-one]: the IC50 on CK2a2 is at most 10 µM.

For `Cc1nn2c(=O)cc(-c3ccc4[nH]nnc4c3C)[nH]c2c1-c1ccccn1` [Example 242, 2-Methyl-5-(4-methyl-1H-benzo[d][1,2,3]triazol-5-yl)-3-(pyridin-2-yl)pyrazolo[1,5-a]pyrimidin-7(4H)-one], the IC50 at PASK [1] was at most 10 µM.

With `COc1cc2[nH]nnc2cc1-c1cc(=O)n2nc(O)c(-c3ccccn3)c2[nH]1` [Example 244, 2-Hydroxy-5-(6-methoxy-1H-benzo[d][1,2,3]triazol-5-yl)-3-(pyridin-2-yl)pyrazolo[1,5-a]pyrimidin-7(4H)-one], the IC50 on PASK [1] was at most 10 µM.

`COc1c(-c2cc(=O)n3nc(N)c(-c4ccccn4)c3[nH]2)ccc2[nH]nnc12` [Example 246, 2-Amino-5-(4-methoxy-1H-benzo[d][1,2,3]triazol-5-yl)-3-(pyridin-2-yl)pyrazolo[1,5-a]pyrimidin-7(4H)-one]: on PASK [1], the IC50 is at most 10 µM.

Take `COc1c(-c2cc(=O)n3nc(O)c(-c4ccccn4)c3[nH]2)ccc2[nH]nnc12` [Example 247, 2-Hydroxy-5-(4-methoxy-1H-benzo[d][1,2,3]triazol-5-yl)-3-(pyridin-2-yl)pyrazolo[1,5-a]pyrimidin-7(4H)-one]: the IC50 on PASK [1] was at most 10 µM.

For `COc1c(-c2cc(=O)n3nc(C)c(-c4ccccn4)c3[nH]2)ccc2[nH]nnc12` [Example 248, 5-(4-Methoxy-1H-benzo[d][1,2,3]triazol-5-yl)-2-methyl-3-(pyridin-2-yl)pyrazolo[1,5-a]pyrimidin-7(4H)-one], the IC50 on PASK [1] is at most 10 µM.

Regarding `CC(C)Oc1c(-c2cc(=O)n3ncc(-c4ccccn4)c3[nH]2)ccc2c1OCO2` [Example 250, 5-(4-Isopropoxybenzo[d][1,3]dioxol-5-yl)-3-(pyridin-2-yl)pyrazolo[1,5-a]pyrimidin-7(4H)-one], the IC50 on PASK [1] was at most 10 µM.

In the case of `Cc1nn2c(=O)cc(-c3ccc4c(c3OC(C)C)OCO4)[nH]c2c1-c1ccccn1` [Example 251, 5-(4-Isopropoxybenzo[d][1,3]dioxol-5-yl)-2-methyl-3-(pyridin-2-yl)pyrazolo[1,5-a]pyrimidin-7(4H)-one], at PASK [1], the IC50 is at most 10 µM.

Regarding `CNC(=O)Oc1ccc(-c2cc(=O)n3nc(C)c(-c4ccccn4)c3[nH]2)cc1` [Example 252, 4-(2-Methyl-7-oxo-3-(pyridin-2-yl)-4,7-dihydropyrazolo[1,5-a]pyrimidin-5-yl)phenyl methylcarbamate], the IC50 at PASK [1] was at most 10 µM.

Regarding `CNC(=O)Oc1ccc(-c2cc(=O)n3ncc(-c4ccccn4)c3[nH]2)cc1` [Example 253, 4-(7-Oxo-3-(pyridin-2-yl)-4,7-dihydropyrazolo[1,5-a]pyrimidin-5-yl)phenyl methylcarbamate], the IC50 on PASK [1] is at most 10 µM.

With `O=c1cc(-c2ccc(-c3nnco3)cc2)[nH]c2c(-c3ccccn3)cnn12` [Example 255, 5-(4-(1,3,4-Oxadiazol-2-yl)phenyl)-3-(pyridin-2-yl)pyrazolo[1,5-a]pyrimidin-7(4H)-one], the IC50 at PASK [1] is at most 10 µM.
